US20050186290A1, “Use of aquaglyceroporin modulators as slimming agent” (L'OREAL, priority 2003, published 2005)

Tests used:
Format in all cases: cell-based, mice
[1] = test system: Aquaporin adipose (AQPap) messenger; assay: Relative expression of AQPap messenger by RT-Q-PCR in differentiated 3T3-L1 cells; conditions: for RE*AQP7 / AQP7/Actin % Control: 6 h; for RE*AQP7: n=2; for AQP7/Actin % Control: differentiated control = 100; for mRNA stimulation: summary
Experimental: The test was carried out on differentiated 3T3-L1 cells obtained as described in Example 1.
The differentiated cells were placed beforehand in test medium for 24 hours and were then treated with the test products or the references. After incubating for 6 h at 37° C. and 5% CO2, the culture supernatants were removed, the cells were rinsed with a PBS solution and the cell layers were placed in Tri-Reagent (Sigma T9424) and then immediately frozen at −80° C.
The expression of the markers selected was evaluated by RT-Q-PCR with regard to the messenger RNAs extracted from the cells corresponding to each treatment.
The marker β-actin (M12481) was used as reference marker.
The operational stages are as follows: • Extraction of the total RNAs using Tri-Reagent according to the protocol recommended by the supplier. Then further extraction with chloroform and precipitation with isopropanol. • Removal of the traces of potentially contaminating DNA by treatment with the DNA-free system (Ambion). After monitoring the quality of the RNAs obtained, the three samples corresponding to each treatment were pooled. • Carrying out the reverse transcription reaction on the mRNA in the presence of the oligo(dT) primer and of the Superscript II (Gibco) enzyme. • Quantification by fluorescence of the synthesized cDNA and adjustment of the concentrations to 50 ng/μl. Further quantification of each cDNA, after final dilution, is carried out before the PCR reaction.
The PCR (polymerase chain reactions) reactions were carried out by quantitative PCR with the “Light Cycler” system (Roche Molecular Systems Inc.) and according to the procedures recommended by the supplier.
The incorporation of fluorescence into the amplified DNA is carried out continuously during the PCR cycles. This system makes it possible to obtain curves of measurement of the fluorescence as a function of the PCR cycles and to thus evaluate a value of relative expression for each marker.
The number of cycles is determined from the “exit” points of the fluorescence curves. For the same marker analysed, the later the sample exits (high cycle number), the lower the initial number of mRNA copies.
The RE (relative expression) value is expressed in arbitrary units according to the following formula: (1/2^number of cycles)×10^6
Results: Effects of the various treatments on the relative expression of the Aquaporin adipose (AQPap) messenger. Results with respect to the amount of actin messenger (reference gene).
RE=Relative Expression, expressed in arbitrary units (AU), n=2.

[2] = test system: differentiated 3T3-L1 cells; assay: Fluorescence assay of glycerol released, Protocol 1 (without epinephrine); conditions: for Release of glycerol: summary
Experimental: (§1) The effects on the release of glycerol were tested in the presence of all the test products and using a fluorescence assay method. Glycerol was then assayed with regard to certain selected products using a calorimetric method and in the presence or the absence of HgCl2.
(§2) The cells used were mice preadipocytes of the 3T3-L1 line (40 000 cells/well).
(§3) The cells were cultured until confluency in a growth medium, with a change in medium every 2-3 days (24-well plates). • Growth medium: • DMEM (Life Technologies 21969035) L-glutamine, 2 mM (Life Technologies 25030024) • Penicillin 50 IU/ml streptomycin 50 μg/ml (Life Technologies 15070063) • Amphotericin B, 0.25 μg/ml (Sigma A2942) • Foetal calf serum, 10% v/v (Life Technologies 10106151).
(§4) At high confluency, the cells were transferred into a differentiation medium for 2×48 hours. • Differentiation medium: • DMEM (Life Technologies 21969035) • L-glutamine, 2 mM (Life Technologies 25030024) • Penicillin 50 IU/ml streptomycin 50 μg/ml (Life Technologies 15070063) • Foetal calf serum, 10% v/v (Life Technologies 10106151), • Isobutylmethylxanthine, 0.5 mM (IBMX, Sigma 17018) • Insulin, 5 μg/ml (Sigma 11882) • Dexamethasone, 1 μM (Sigma D1756)
After differentiation, the cells were transferred into DMEM medium+insulin (5 μg/ml final) for 72 hours and then into growth medium (DMEM/10% serum).
The differentiated cells were placed in test medium (MEM 100% (v/v), bicarbonate 1.87 mg/ml, glutamine 2 mM, delipidated bovine serum albumin 0.5% (w/v), penicillin/streptomycin 25 IU/ml/25 μg/ml) and were then treated with the test products or the references. After incubating at 37° C. for 1 h and 5% CO2, the culture supernatants were removed in order to assay the glycerol released.
The glycerol released into the culture medium was with a determined content of directly by measuring the fluorescence of the NADH produced in the following reaction sequence (according to Wieland). [drawing 1] Autofluorescence and quenching (absorption of the fluorescence) controls were carried out in order to determine possible interference of the products in this assay.

[3] = test system: differentiated 3T3-L1 cells; assay: Colorimetric assay of glycerol released, Protocol 1; conditions: Protocol 1, 40 μM
Experimental: as §1, §2, §3, §4
After differentiation, the cells were transferred into DMEM medium+insulin (5 μg/ml final) for 72 hours and then into growth medium (DMEM/10% serum). […]

[4] = test system: differentiated 3T3-L1 cells; assay: Fluorescence assay of glycerol released, HgCl2 protocol (Protocol 3); conditions: 10 mM
Experimental: The majority of mammalian aquaporins are inhibited by mercury and its salts, whereas chemical inhibitors of diffusion are unknown (P. Agre et al., J. of Physiology, 2002, 542.1). The cells used were mice preadipocytes of the 3T3-L1 line (40 000 cells/well). The cells were cultured until confluency in a growth medium, with a change in medium every 2-3 days (24-well plates). • Growth medium: • DMEM (Life Technologies 21969035) L-glutamine, 2 mM (Life Technologies 25030024) • Penicillin 50 IU/ml streptomycin 50 μg/ml (Life Technologies 15070063) • Amphotericin B, 0.25 μg/ml (Sigma A2942) • Foetal calf serum, 10% v/v (Life Technologies 10106151). […] After differentiation, the cells were transferred into DMEM medium+insulin (5 μg/ml final) for 72 hours and then into growth medium (DMEM/10% serum). […] The differentiated cells were placed in test medium for 24 h. The cells were subsequently placed in PBS buffer comprising or not comprising HgCl2 (30 μM final) for 5 minutes at 37° C. After treatment with HgCl2, the cells were washed twice in PBS and then placed in test medium comprising or not comprising the test products. The culture supernatants were subsequently removed in order to assay the glycerol released.

[5] = Protocol 1 (Caophenol table), 40 μM

## CCCCCCCCCCC#CCSCC(=O)O [(Tridec-2-ynylthio)acetic acid]
[1]; 0.00032 mg/ml
  RE*AQP7: 0.912 AU
  AQP7/Actin % Control: 130%
[1]; 0.0016 mg/ml
  RE*AQP7: 0.872 AU
  AQP7/Actin % Control: 105%
[1]; 0.008 mg/ml
  RE*AQP7: 0.032 AU
  AQP7/Actin % Control: 174%
[1]; 0.16-4.0 μg/ml
  mRNA stimulation: Yes
[2]; 0.16-4.0 μg/ml
  Release of glycerol: No

## CNC[C@H](O)c1ccc(O)c(O)c1 [Epinephrine]
[3]
  % Control: 795%
  Glycerol: 449.74 µM
[2]; [5]
  % Control: 327%
  % theory, taking into account the quenching control: 327%
  Glycerol: 101.85 µM
[2]; Protocol 1, 40 μM, 1 h
  % Control: 352%
  Glycerol: 117.57 µM
[2]; differentiated preadipocytes, epinephrine 40 μM
  Glycerol: 149.5 µM
[2]; differentiated preadipocytes, epinephrine 40 μM, unstimulated differentiated = 100
  Δ%: 383%

## CCCCCCCCSCC#CCSCC(=O)O [{[4-(Octylthio)but-2-ynyl]thio}acetic acid]
[1]; 0.00016 mg/ml
  RE*AQP7: 0.023 AU
  AQP7/Actin % Control: 128%
[1]; 0.0008 mg/ml
  RE*AQP7: 0.022 AU
  AQP7/Actin % Control: 153%
[1]; 0.004 mg/ml
  RE*AQP7: 0.020 AU
  AQP7/Actin % Control: 167%
[1]; 0.32-8.0 μg/ml
  mRNA stimulation: Yes
[2]; 0.32-8.0 μg/ml
  Release of glycerol: No

## OCCS [β-Mercaptol]
[4]
  % theory, taking into account the quenching control: 155%
  Glycerol: 135.74 µM
[4]; HgCl2 control = 100
  % Control: 155%

## Aescin
[1]; 0.000128 mg/ml
  RE*AQP7: 0.034 AU
  AQP7/Actin % Control: 134%
[1]; 0.00064 mg/ml
  RE*AQP7: 0.039 AU
  AQP7/Actin % Control: 168%
[1]; 0.0032 mg/ml
  RE*AQP7: 0.043 AU
  AQP7/Actin % Control: 164%
[1]; 0.128-3.2 μg/ml
  mRNA stimulation: Yes
